Measurements published in ChEMBL document CHEMBL1201862, “PubChem BioAssay data set” (2004).
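A five-concentration, 48-hour dose response in 96-well plates underlies each endpoint, interpolated linearly between surrounding concentrations. Abbreviation: GI50, concentration required for 50% inhibition of growth.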 The source made the active and inactive calls. Cut-off read from the data, not from the text of the source: active = GI50 up to about 1.1 µM and inactive = higher.

Experiments:
Assay in all cases: NCI-60 cell line screen, 48 h
OVCAR-3 = tested on: OVCAR-3
CAKI-1 = tested on: CAKI-1
IGROV-1 = tested on: IGROV-1
LOX IMVI = tested on: LOX IMVI
HCT-116 = tested on: HCT-116
SW-620 = tested on: SW-620
SR = tested on: SR
SNB-19 = tested on: SNB-19
NCI-H460 = tested on: NCI-H460
UACC-62 = tested on: UACC-62
SF-295 = tested on: SF-295
NCI-H23 = tested on: NCI-H23
OVCAR-4 = tested on: OVCAR-4
SK-OV-3 = tested on: SK-OV-3
SK-MEL-5 = tested on: SK-MEL-5
MDA-MB-231 = tested on: MDA-MB-231
Hs-578T = tested on: Hs-578T
PC-3 = tested on: PC-3
DU-145 = tested on: DU-145

Measured: GI50

COC(=O)C(Cc1nc2ccccc2nc1O)C(=O)C(=O)Nc1ccc(OC)cc1[N+](=O)[O-] (configuration not stated)
inactive: OVCAR-3 > 100 µM | CAKI-1 > 100 µM | IGROV-1 > 100 µM | LOX IMVI > 100 µM | HCT-116 > 100 µM | SW-620 > 100 µM | SR > 100 µM | SNB-19 > 100 µM | NCI-H460 > 100 µM | UACC-62 > 100 µM | SF-295 > 100 µM | NCI-H23 > 100 µM | OVCAR-4 > 100 µM | SK-OV-3 > 100 µM | SK-MEL-5 > 100 µM

CC(=O)Nc1ccc(/C=C/C(=O)c2sc(-n3nc(-c4ccccc4)cc3-c3ccccc3)nc2C)cc1
inactive: OVCAR-3 > 10 µM | CAKI-1 > 10 µM | IGROV-1 > 10 µM | LOX IMVI > 10 µM | HCT-116 > 10 µM | SW-620 > 10 µM | SR > 10 µM | SNB-19 > 10 µM | NCI-H460 > 10 µM | UACC-62 > 10 µM | SF-295 > 10 µM | NCI-H23 > 10 µM | OVCAR-4 78.7 µM | SK-OV-3 > 10 µM | SK-MEL-5 95.3 µM

CCOC(=O)N[C@@H]1C2CC(=O)C(O2)[C@@H]1OC (some centres not stated)
inactive: OVCAR-3 > 100 µM | CAKI-1 > 100 µM | IGROV-1 > 100 µM | LOX IMVI > 100 µM | HCT-116 > 100 µM | SW-620 > 100 µM | SR > 100 µM | SNB-19 > 100 µM | NCI-H460 > 100 µM | UACC-62 > 100 µM | SF-295 > 100 µM | NCI-H23 > 100 µM | OVCAR-4 > 100 µM | SK-OV-3 > 100 µM | SK-MEL-5 > 100 µM

CCNC(=O)COc1ccc(Br)cc1Br
inactive: OVCAR-3 > 100 µM | CAKI-1 > 100 µM | IGROV-1 > 100 µM | LOX IMVI > 100 µM | HCT-116 > 100 µM | SW-620 > 100 µM | SR > 100 µM | SNB-19 54.7 µM | NCI-H460 > 100 µM | UACC-62 33.3 µM | SF-295 > 100 µM | NCI-H23 > 100 µM | OVCAR-4 > 100 µM | SK-OV-3 > 100 µM | SK-MEL-5 86.5 µM

Cc1c(Cl)ccc2c1NC(=O)C2(O)CC(=O)c1ccc(Cl)cc1 (configuration not stated)
inactive: OVCAR-3 57.3 µM | CAKI-1 > 71.9 µM | IGROV-1 > 100 µM | LOX IMVI 19.7 µM | HCT-116 27.5 µM | SW-620 29.9 µM | SR 13.9 µM | SNB-19 97.3 µM | NCI-H460 29.6 µM | UACC-62 33.5 µM | SF-295 24.8 µM | NCI-H23 54.5 µM | OVCAR-4 43.7 µM | SK-OV-3 > 100 µM | SK-MEL-5 53.3 µM

OCC1CC2C=CCC(C2)C1 (configuration not stated)
inactive: OVCAR-3 > 100 µM | CAKI-1 > 100 µM | IGROV-1 > 100 µM | LOX IMVI > 100 µM | HCT-116 > 100 µM | SW-620 > 100 µM | SR > 100 µM | SNB-19 > 100 µM | NCI-H460 > 100 µM | UACC-62 > 100 µM | SF-295 > 100 µM | NCI-H23 > 100 µM | OVCAR-4 > 100 µM | SK-OV-3 > 100 µM | SK-MEL-5 > 100 µM

C=CCC12CC(=O)CCC1c1ccc(OC)cc1C2=O (configuration not stated)
inactive: OVCAR-3 > 100 µM | CAKI-1 > 100 µM | IGROV-1 > 100 µM | LOX IMVI > 100 µM | HCT-116 > 100 µM | SW-620 > 100 µM | SR > 100 µM | SNB-19 > 100 µM | NCI-H460 > 100 µM | UACC-62 > 100 µM | SF-295 > 100 µM | NCI-H23 > 100 µM | OVCAR-4 > 100 µM | SK-OV-3 > 100 µM | SK-MEL-5 > 100 µM

CC(=O)C1C(=O)C(=O)N(c2ccccc2N2C(=O)C(=O)C(C(C)=O)C2=O)C1=O (configuration not stated)
inactive: OVCAR-3 > 100 µM | CAKI-1 > 100 µM | IGROV-1 > 100 µM | LOX IMVI > 100 µM | HCT-116 > 100 µM | SW-620 > 100 µM | SR > 100 µM | SNB-19 > 100 µM | NCI-H460 > 100 µM | UACC-62 > 100 µM | SF-295 > 100 µM | NCI-H23 > 100 µM | OVCAR-4 > 100 µM | SK-OV-3 > 100 µM | SK-MEL-5 > 100 µM

CCOC(=O)C1C(c2ccc3c(c2)OCO3)c2c(n[nH]c2O)CC1(C)O (configuration not stated)
inactive: OVCAR-3 > 100 µM | CAKI-1 > 100 µM | MDA-MB-231 > 100 µM | IGROV-1 > 100 µM | LOX IMVI > 100 µM | HCT-116 > 100 µM | SW-620 > 100 µM | Hs-578T > 100 µM | PC-3 > 100 µM | SR > 100 µM | SNB-19 > 100 µM | NCI-H460 > 100 µM | UACC-62 > 100 µM | SF-295 > 100 µM | NCI-H23 > 100 µM | DU-145 > 100 µM | OVCAR-4 > 100 µM | SK-MEL-5 > 100 µM

Cc1ccc(NC(=O)C(=O)C(C#N)c2nc(-c3ccc(-c4ccccc4)cc3)cs2)c(C)c1 (configuration not stated)
inactive: OVCAR-3 > 100 µM | CAKI-1 > 100 µM | IGROV-1 > 100 µM | LOX IMVI > 100 µM | HCT-116 > 100 µM | SW-620 17.4 µM | SR > 100 µM | SNB-19 > 100 µM | NCI-H460 > 100 µM | UACC-62 > 100 µM | SF-295 > 100 µM | OVCAR-4 > 100 µM | SK-OV-3 > 100 µM | SK-MEL-5 > 100 µM

COc1cc(C)c(C)c(OC(=O)c2c(C)c(C)c(OC)c(C)c2OC)c1C
inactive: OVCAR-3 2.02 µM | CAKI-1 7.26 µM | IGROV-1 8.67 µM | LOX IMVI 4.75 µM | HCT-116 4.1 µM | SW-620 3.86 µM | SR 4.23 µM | SNB-19 15.4 µM | NCI-H460 3.98 µM | UACC-62 6.71 µM | SF-295 3.92 µM | NCI-H23 10.4 µM | OVCAR-4 10.3 µM | SK-OV-3 7.19 µM | SK-MEL-5 5.02 µM

COCN(C)c1nc(N(C)C)nc(N(C)C)n1
inactive: OVCAR-3 > 100 µM | CAKI-1 > 100 µM | IGROV-1 > 100 µM | LOX IMVI > 100 µM | HCT-116 > 100 µM | SW-620 > 100 µM | SR > 100 µM | SNB-19 > 100 µM | NCI-H460 > 100 µM | UACC-62 > 100 µM | SF-295 > 100 µM | NCI-H23 > 100 µM | OVCAR-4 > 100 µM | SK-OV-3 > 100 µM | SK-MEL-5 > 100 µM

C[C@]12CCC[C@H](Cl)C1(O)C[C@H](C(=O)O)CC2 (some centres not stated)
inactive: OVCAR-3 > 100 µM | CAKI-1 > 100 µM | IGROV-1 > 100 µM | LOX IMVI > 100 µM | HCT-116 > 100 µM | SW-620 > 100 µM | SR > 100 µM | SNB-19 > 100 µM | NCI-H460 > 100 µM | UACC-62 > 100 µM | SF-295 > 100 µM | NCI-H23 > 100 µM | OVCAR-4 > 100 µM | SK-OV-3 > 100 µM | SK-MEL-5 > 100 µM
